Measurements: patent US20110275606A1, “SUBSTITUTED PORPHYRINS” (DUKE UNIVERSITY, priority 2009, published 2011)

Columns and labels:
[1] = Redox properties: E1/2 of the Mn^IIIP/Mn^IIP redox couple; format: physicochemical
Experimental: (§1) Table indicating the redox properties (E1/2 of the Mn^IIIP/Mn^IIP redox couple) and antioxidant (log kcat for the dismutation of superoxide, O2′^−) properties of ortho and meta isomers of Mn N-substituted pyridylporphyrins. The E1/2 and log kcat were determined as described in Reboucas et al., Dalton Trans., 2008, 1233-42. Rf is the ratio of the drug path over solvent path on thin-layer silica with water/acetonitrile/KNO3 saturated water and is a measure of […]. […] In addition, as the length of the pyridyl substituent increases the SOD activity of the ortho compounds drops while there is no change in the SOD activity of the meta compounds.

[2] = system: 4T1 window chamber tumors; test: Radiosensitivity of tumor vasculature in vivo (window chamber); parameters: species or system mice; conditions: combined with radiation 3 x 5 Gy; 6 mg/kg/day for three days; between 48 and 72 hours post-radiation
Experimental: 4T1 window chamber tumors are randomized to treatment with PBS or MnTE-2-PyP^5+, and radiation or sham-irradiation. […] Tumors are imaged immediately after radiation (0 hours), and every day thereafter (24, 48, and 72 hours), and these images are used to calculate the tumor vascular length densities.
Mice are anesthetized with sodium pentobarbital (80 mg/kg, i.p.), and a 1-cm diameter circular incision is made in the dorsal skin flap, over which a titanium chamber is surgically implanted. A 10-μL suspension of tumor cells (5×10^3 cells) is then injected into the opposing flap of skin. […] Observations of window chamber tumors are performed daily on restrained, unanaesthetized mice with an inverted Zeiss fluorescence microscope (Carl Zeiss, Jena, Germany). Images are captured onto a personal computer with Scion Image software (Frederick, Md.) and analyzed with Adobe Photoshop (San Jose, Calif.). Tumor volume and vascular length densities are calculated as follows. Briefly, tumor volumes are calculated with the formula: d^2(3.14/2), where the diameter is determined from low-power (2.5×) microscopy images by comparing pixel dimensions with micrometer values. Vascular length densities are measured from medium-power (5×) fields by using image analysis software (Scion Image) to trace the vascular network. […]

[3] = Antioxidant properties: log kcat for the dismutation of superoxide (SOD activity); format: biochemical
Experimental: as §1

[4] = system: Wildtype (WT) cells; test: Gamma H2AX immunofluorescence, radiation-induced DNA damage; format: cell-based; conditions: 2 Gy, assessed at 15 minutes
Experimental: Radiation-induced DNA damage recognition is measured by γ-H2AX immunofluorescence. Wildtype (WT) cells are propagated in fresh medium with the compounds at specified concentrations. […] WT cells are collected at log phase of their growth cycle, after an 18-hour incubation with the indicated compounds. After treatment, the cells are irradiated with 2 Gy and assessed at 15 minutes. These conditions maximize the yield of DNA damaged cells while minimizing cytotoxicity. The cells are dropped onto cover slips and fixed with 4% paraformaldehyde, semi-permeabilized with 0.5% Triton-X 100 and washed with PBS. Cells are incubated with 1:400 dilution of mouse monoclonal antibody to γ-H2AX (Upstate Biotechnology), followed by 1:200 dilution of goat anti-mouse IgG antibody to immunoglobulin labeled with FITC (Jackson Immunochemicals) in PBS containing 10% FBS for 1.5 and 1 h, respectively. Slides are analyzed for γ-H2AX nuclear foci formation with FISH analysis software (Vysis) on a Leica DM RXA automated microscope equipped with Photometrix SenSyn. All slides are coded by one person and read blindly by another.

[5] = system: B16F10 melanoma cell line; test: Hyperthermia plus Mn porphyrin, tumor growth delay; format: in vivo, C57/BL6 mice; conditions: combination with hyperthermia (1d, 5d, 8d); 5 mg/kg twice per day; sacrifice day 9
Experimental: Treatment with hyperthermia and Mn porphyrins leads to a significant delay in tumor growth. In C57/BL6 mice, B16F10 melanoma cell line ([…]) is implanted in right flank. […] Tumor volumes are measured. Animals are sacrificed at day 9.

[6] = system: WT cells; test: XTT cell proliferation, radiation-induced cytotoxicity; format: cell-based; conditions: 5 Gy, 48 hours post-radiation, compared to untreated irradiated WT cells
Experimental: XTT, a tetrazolium salt, is used to measure cell viability after irradiation exposure. XTT is reduced by viable mitochondria to formazan, which causes a colorimetric change that can be measured at 450 nm. Approximately 5×10^4 cells are seeded per well in 96-well plates and incubated for 18 hours in fresh medium along with the compound at the final concentration indicated (3 replicates each). One set of plates is used as an unirradiated control and the other set was irradiated with 5 Gy. Five Gy is the optimal dose for observing efficient cytotoxicity within 48 hours. An XTT cell proliferation kit (Roche) is used to measure this cytotoxicity. All assays are performed in triplicate and the absorbance is read on a Spectramax plate reader. XTT is used to assess both the toxicity of the compounds and the effect of each compound on IR-induced cytotoxicity. All cells are pre-treated with the indicated compound two hours prior to being irradiated with 5 Gy and are assayed for viability 48 hours post-radiation.

[7] = system: wild type cells; test: Annexin V/propidium iodide post-radiation apoptosis, wild type cells; format: cell-based; conditions: 5 Gy
Experimental: (§2) Annexin V/propidium iodide staining is used as a second method to measure radiation-induced cytotoxicity. Cells are incubated in fresh medium along with the compounds at the final concentrations indicated. One set of samples is irradiated (5 Gy) to efficiently induce apoptosis within 48 hours. An annexin V/propidium iodide kit (BioVision) is used to detect apoptotic cells. The annexin V is labeled with fluorescein isothiocyanate (FITC) to detect phospholipid phosphatidylserine (PS) on the outer membrane of apoptotic cells; propidium iodide (PI) is used to detect necrotic cells. The assay is performed according to the manufacturer's instructions. Briefly, approximately 5×10^5 cells are washed in PBS, resuspended in annexin V and PI staining solution for 15 min at room temperature and analyzed immediately by flow cytometry (Flow Cytometry Core, UCLA). Annexin V and propidium iodide staining is used to measure post-radiation apoptosis.

[8] = system: A-T cells; test: Annexin V/propidium iodide post-radiation apoptosis, A-T cells; format: cell-based; conditions: 5 Gy
Experimental: as §2

[9] = system: Male Sprague-Dawley rats; test: Carrageenan-induced paw oedema; format: in vivo; conditions: 0.3 mg/kg; rat paw
[10] = system: SOD-deficient E. coli; test: Aerobic growth of SOD-deficient E. coli in minimal medium (turbidimetry at 700 nm); format: cell-based, Escherichia coli; conditions: 20 and 30 μM, 19th hour, positive control MnTE-2-PyP^5+
Experimental: Escherichia coli (E. coli) strains used were AB1157, wild type (F-thr-1; leuB6; proA2; his-4; thi-1; argE2; lacY1; galK2; rpsL; supE44; ara-14; xyl-15; mtl-1; tsx-33), and JI1132, SOD-deficient, sodA-sodB-(same as AB1157 plus (sodA::mudPR13)25 (sodB-kan)1-Δ2). Both strains were obtained from J. A. Imlay. In addition to AB/JI strains another strain GC and its SOD-deficient analogue QC were used. The experiments were carried out as described in more detail in Reboucas et al., Dalton Trans., 2008, 1233-42. Briefly, cultures were grown aerobically in a 5 amino acid restricted medium (L-leucine, L-threonine, L-proline, L-arginine, L-histidine) in flasks on a water bath shaker at 37° C. and 200 rpm. The effect of the compound of Example 1 on the growth of these strains was followed turbidimetrically at 700 nm (to minimize the interference of compounds studied) and compared to the growth curves of both strains in the absence of Mn porphyrin (controls). Deionized water was used throughout the study. The effects are shown in FIG. 2 for one strain (QC and GC) and in FIG. 3 for other strain (AB and JI). […] The effects varied with the type of the strain.

[11] = system: CD1 male mice; test: Carrageenan-induced pleurisy; format: in vivo; conditions: 0.3 mg/kg; 4 h after carrageenan
Experimental: Pleurisy is induced by carrageenan. Six to eight week old CD1 male mice are used. The mice are anesthetized with isoflurane and a skin incision is made at the level of the left sixth intercostal space. The underlying muscle is dissected and saline (0.2 ml) or saline containing 1% (w/v) λ-carrageenan (Sigma-Aldrich Ltd, 0.2 ml) is injected into the pleural cavity. The skin incision is closed with a suture and the animals are allowed to recover. At 4 h after the injection of carrageenan, the animals are killed. The chest is carefully opened and the pleural cavity is rinsed with 2 ml of saline solution containing heparin (5 U/ml) and indomethacin (10 μg/ml). The exudate and washing solution is removed by aspiration and the total volume is measured. Any exudate, which is contaminated with blood, is discarded. The amount of exudate is calculated by subtracting the volume injected (2 ml) from the total volume recovered. The leukocytes in the exudate are suspended in phosphate-buffer saline (PBS, 0.01M, pH7.4) and counted with an optical microscope in a Burker's chamber after vital Trypan Blue staining.

[12] = Thin layer chromatography Rf (lipophilicity); format: physicochemical; conditions: thin-layer silica, saturated KNO3(aq):H2O:MeCN (1:1:8); measure of lipophilicity
Experimental: Thin layer chromatography (TLC) was carried out in polyester-backed silica-gel sheets without fluorescent indicator (Sigma-Aldrich Z122777-25EA) cut into ˜2×20 cm strips and eluted with a saturated KNO3(aq):H2O:MeCN (1:1:8, v/v/v) mixture in a capped 1 L chamber. Typically, 1 microliter of ˜1 mM samples were applied at ˜1 cm of the strip border and the solvent front was allowed to run ˜12 cm.
as §1
Rf is a measure of lipophilicity and is linearly related to log P where P is the partition coefficient between water and n-octanol. (Kos et al., Free Radic. Biol. Med., 47, 72-78, 2009, which is incorporated by reference herein).

Compound | E1/2 [1] | tumor devascularization (vascular length density) [2] | logkcat [3] | reduction of IR-induced γ-H2AX immunofluorescent nuclear foci (IRIFs) [4] [%] | delay of tumor growth [5] | reduction of IR-induced cytotoxicity [6] [%] | reduction in the percentage of apoptotic cells after radiation exposure [7] [%] | reduction in the percentage of apoptotic cells after radiation exposure [8] [%] | decrease of myeloperoxidase activity [9] | decrease of number of polymorphonuclear cells [9] | protecting E. coli compared with MnTE-2-PyP^5+ (FIG. 3) ([10]; SOD-deficient strain JI / wild type AB) | protecting E. coli compared with MnTE-2-PyP^5+ (FIG. 2) ([10]; SOD-deficient strain QC / wild type GC) | decrease of myeloperoxidase activity [11] | decrease of number of polymorphonuclear cells [11] | decrease of volume of exudates [11] | Rf [12]
MnTnPrOH-3-PyP^5+ | +52 mV | significant tumor devascularization | 6.83 | 57 | Full delay of tumor growth | 50 | 60 | 40 | to control levels | to control levels | better | similar | to control levels | to control levels | to control levels | –
OCCC[n+]1ccccc1-c1c2nc(c(-c3cccc[n+]3CCCO)c3ccc([nH]3)c(-c3cccc[n+]3CCCO)c3nc(c(-c4cccc[n+]4CCCO)c4ccc1[nH]4)C=C3)C=C2 [H2TnPrOH-2-PyP] | – | – | – | – | – | – | – | – | – | – | – | – | – | – | – | 0.09
OCCC[n+]1cccc(-c2c3nc(c(-c4ccc[n+](CCCO)c4)c4ccc([nH]4)c(-c4ccc[n+](CCCO)c4)c4nc(c(-c5ccc[n+](CCCO)c5)c5ccc2[nH]5)C=C4)C=C3)c1 [H2TnPrOH-3-PyP] | – | – | – | – | – | – | – | – | – | – | – | – | – | – | – | 0.1
MnTnPrOH-2-PyP^5+ | +238 mV | significant tumor devascularization | 7.38 | 57 | Full delay of tumor growth | 50 | 60 | 40 | to control levels | to control levels | – | – | to control levels | to control levels | to control levels | 0.05
